Test system: Plasmodium berghei
Experiment: Luciferase/luciferin-expressing antifolate-resistant parasites were used to infect a culture of HepG2 cells that were pre-incubated with compounds. Infected hepatocytes emit light due to the luciferase reaction. Assay results are presented as the percent inhibition of light emission compared to control. […]
Assay type: functional
Details: sporozoite; for IC90: read-out: LUCIFERASE INFECTION ASSAY - IC90
[1] = PBLUC_HILL_SLOPE 1, PBLUC_R_SQUARED 0.439, read-out: LUCIFERASE INFECTION ASSAY - IC50

| SMILES | IC90 | also measured |
| --- | --- | --- |
| Cc1ccc2c(Cl)cc(Cl)c(OCC(=O)N(C(C)C)C(C)C)c2n1 | > 10 µM | IC50 (PBLUC_HILL_SLOPE 0.984, PBLUC_R_SQUARED 0.0595, read-out: LUCIFERASE INFECTION ASSAY - IC50): > 10 µM |
| CC(=O)c1c(C)[nH]c(C(=O)OCCOc2ccccc2)c1C | > 10 µM | IC50 (PBLUC_HILL_SLOPE 1.04, PBLUC_R_SQUARED 0.638, read-out: LUCIFERASE INFECTION ASSAY - IC50): 1.81 µM |
| CC(C)(C)NCc1cc(Cl)ccc1OCc1ccccc1F | > 9.21 µM | IC50 (PBLUC_HILL_SLOPE 1.1, PBLUC_R_SQUARED 0.254, read-out: LUCIFERASE INFECTION ASSAY - IC50): 4.67 µM |
| CCOCc1c(C(=O)Nc2ccccc2N2CCN(C)CC2)oc2ccccc12 | 7.05 µM | IC50 (PBLUC_HILL_SLOPE 0.969, 2.85, PBLUC_R_SQUARED 0.516, 0.696, read-out: LUCIFERASE INFECTION ASSAY - IC50): 2.83 µM |
| CC(C)c1ccccc1NC(=O)Nc1nc(C(N)Cc2ccc(C(F)(F)F)cc2)cs1 (configuration not stated) | > 7.36 µM | IC50 (PBLUC_HILL_SLOPE 1.06, PBLUC_R_SQUARED 0.663, read-out: LUCIFERASE INFECTION ASSAY - IC50): 1.89 µM |
| NC(Cc1ccc(Cl)cc1)c1csc(Nc2nncc3ccccc23)n1 (configuration not stated) | > 8.64 µM | IC50 (PBLUC_HILL_SLOPE 1.01, PBLUC_R_SQUARED 0.151, read-out: LUCIFERASE INFECTION ASSAY - IC50): 5.44 µM |
| Cc1nn(Cc2ccc(C(=O)NC3CC3)cc2)c(C)c1[N+](=O)[O-] | > 10 µM | IC50 (PBLUC_HILL_SLOPE 1.06, PBLUC_R_SQUARED 0.0833, read-out: LUCIFERASE INFECTION ASSAY - IC50): > 10 µM |
| NC(=O)c1nc[nH]c1NC(=O)Cc1ccc(-c2ccccc2)cc1 | > 10 µM | IC50 (PBLUC_HILL_SLOPE 1, PBLUC_R_SQUARED 0.17, read-out: LUCIFERASE INFECTION ASSAY - IC50): > 10 µM |
| CC(=O)c1ccc(NC(=O)CCn2nnc(-c3ccc(C(C)C)cc3)n2)cc1 | > 10 µM | IC50 [1]: 6.32 µM |
| CCOC(=O)c1cc(-c2ccc(OC)cc2)nn1-c1cccc(C)c1 | > 10 µM | IC50 (PBLUC_HILL_SLOPE 0.992, PBLUC_R_SQUARED 0.815, read-out: LUCIFERASE INFECTION ASSAY - IC50): > 10 µM |
| S=C(Nc1ccc(Oc2ccccc2)cc1)Nc1cccc2cnccc12 | > 10 µM | IC50 (PBLUC_HILL_SLOPE 1.05, PBLUC_R_SQUARED 0.612, read-out: LUCIFERASE INFECTION ASSAY - IC50): 4.86 µM |
| Cc1ccccc1-n1nnc(C(=O)Nc2cccc(Br)c2)c1N | 4.24 µM | IC50 (PBLUC_HILL_SLOPE 0.945, PBLUC_R_SQUARED 0.824, read-out: LUCIFERASE INFECTION ASSAY - IC50): 0.414 µM |
| Cc1ccc2nc3ccccc3c(N3CCN(C(=O)c4ccccc4)CC3)c2c1 | 3.42 µM | IC50 (PBLUC_HILL_SLOPE 1, PBLUC_R_SQUARED 0.729, read-out: LUCIFERASE INFECTION ASSAY - IC50): 0.384 µM |
| CCCn1c(=O)n(CC(=O)Nc2ccc(C)c(C)c2)c(=O)c2c1nc(C(F)(F)F)n2CCOC | > 10 µM | IC50 (PBLUC_HILL_SLOPE 0.949, PBLUC_R_SQUARED 0.63, read-out: LUCIFERASE INFECTION ASSAY - IC50): 1.57 µM |
| Cc1nn(-c2ccccc2)c2c1C1(C(=O)Nc3ccccc31)N1N=NN(c3ccccc3)C1=N2 (configuration not stated) | > 10 µM | IC50 (PBLUC_HILL_SLOPE 0.947, PBLUC_R_SQUARED 0.0755, read-out: LUCIFERASE INFECTION ASSAY - IC50): > 10 µM |
| COc1cc2c(cc1NC(=O)C(C)N1CCC(C(N)=O)CC1)oc1ccccc12 (configuration not stated) | > 10 µM | IC50 (PBLUC_HILL_SLOPE 1.06, PBLUC_R_SQUARED 0.647, read-out: LUCIFERASE INFECTION ASSAY - IC50): 1.32 µM |
| CC1(C)CC2CC(C)(CN2C(=O)CSc2nnc(-c3cc(-c4cccs4)nc4ccccc34)o2)C1 (configuration not stated) | > 10 µM | IC50 (PBLUC_HILL_SLOPE 1.06, PBLUC_R_SQUARED 0.333, read-out: LUCIFERASE INFECTION ASSAY - IC50): > 10 µM |
| Cc1ccccc1-c1cn2c(-c3cccc(C(=O)N4CCN(C)CC4)c3)cnc2cn1 | > 8.02 µM | IC50 (PBLUC_HILL_SLOPE 1.06, PBLUC_R_SQUARED 0.743, read-out: LUCIFERASE INFECTION ASSAY - IC50): 3.76 µM |
| COc1ccccc1N1CCN(c2oc(-c3ccccc3Cl)nc2S(=O)(=O)c2ccc(C)cc2)CC1 | > 10 µM | IC50 (PBLUC_HILL_SLOPE 1.06, PBLUC_R_SQUARED 0.3, read-out: LUCIFERASE INFECTION ASSAY - IC50): > 10 µM |
| Cc1csc(SCC(=O)c2cc(C)n(-c3ccccc3)c2C)n1 | 0.219 µM | IC50 (PBLUC_HILL_SLOPE 0.985, PBLUC_R_SQUARED 0.172, read-out: LUCIFERASE INFECTION ASSAY - IC50): 0.0235 µM |
| Cc1cc(NC(=O)N2CCN(Cc3sc4ccccc4c3Cl)CC2)no1 | 1.17 µM | IC50 (PBLUC_HILL_SLOPE 1.04, PBLUC_R_SQUARED 0.858, read-out: LUCIFERASE INFECTION ASSAY - IC50): 0.141 µM |

| SMILES | IC90 | also measured |
| --- | --- | --- |
| CS(=O)(=O)N1CCCc2cc(C(=O)Nc3[nH]nc4ccccc34)ccc21 | > 10 µM | IC50 (PBLUC_HILL_SLOPE 1.05, PBLUC_R_SQUARED 0.487, read-out: LUCIFERASE INFECTION ASSAY - IC50): 4.21 µM |
| Clc1ccc(-c2csc(-c3nnc4n3-c3ccccc3SC4)n2)s1 | > 10 µM | IC50 [1]: 6.32 µM |
| CN1CCN(c2ccccc2NC(=O)c2cccc(Oc3ccccc3)c2)CC1 | 5.25 µM | IC50 (PBLUC_HILL_SLOPE 1.09, PBLUC_R_SQUARED 0.715, read-out: LUCIFERASE INFECTION ASSAY - IC50): 0.704 µM |
| CC1CC(C)CN(C(=O)CN2CCN(CC(=O)Nc3ccc(N4CCCCCC4)cc3)CC2)C1 (configuration not stated) | > 10 µM | IC50 (PBLUC_HILL_SLOPE 1.09, PBLUC_R_SQUARED 0.619, read-out: LUCIFERASE INFECTION ASSAY - IC50): 3.56 µM |
| S=c1sc(Nc2ccc(Oc3ccccc3)cc2)nn1CN1CCN(c2ncccn2)CC1 | > 10 µM | IC50 (PBLUC_HILL_SLOPE 0.972, PBLUC_R_SQUARED 0.697, read-out: LUCIFERASE INFECTION ASSAY - IC50): 3.61 µM |
| CCn1c(NC(=O)c2csc(Br)c2)nc2ccccc21 | > 10 µM | IC50 (PBLUC_HILL_SLOPE 0.956, PBLUC_R_SQUARED 0.162, read-out: LUCIFERASE INFECTION ASSAY - IC50): 5.44 µM |
| Cc1ccsc1C(O)c1nnc(N2CCCCC2)s1 (configuration not stated) | 6.49 µM | IC50 (PBLUC_HILL_SLOPE 1.05, PBLUC_R_SQUARED 0.691, read-out: LUCIFERASE INFECTION ASSAY - IC50): 0.794 µM |
| CC(NC(C)c1ccc(Cl)cc1)C(=O)Nc1sccc1C(N)=O (configuration not stated) | > 10 µM | IC50 (PBLUC_HILL_SLOPE 1.06, PBLUC_R_SQUARED 0.69, read-out: LUCIFERASE INFECTION ASSAY - IC50): 2.14 µM |
| C=C1SC(Nc2cc(C)cc(C)c2)=NC1(C)C | > 13.4 µM | IC50 (PBLUC_HILL_SLOPE 0.95, PBLUC_R_SQUARED 0.559, read-out: LUCIFERASE INFECTION ASSAY - IC50): > 13.4 µM |
| OC(c1ccc(Nc2nc3ccccc3s2)cc1)(C(F)(F)F)C(F)(F)F | 9.74 µM | IC50 (PBLUC_HILL_SLOPE 1.04, 1.87, PBLUC_R_SQUARED 0.121, 0.671, read-out: LUCIFERASE INFECTION ASSAY - IC50): 5.01 µM |
| O=C(CCOc1ccc(F)cc1)Nc1cc(Cl)cc(Cl)c1 | > 10.1 µM | IC50 (PBLUC_HILL_SLOPE 0.967, PBLUC_R_SQUARED 0.399, read-out: LUCIFERASE INFECTION ASSAY - IC50): > 10.1 µM |
| Cc1ccc(S(=O)(=O)N2Cc3ccccc3C(C)CC23CCCCC3)cc1 (configuration not stated) | > 8.6 µM | IC50 (PBLUC_HILL_SLOPE 1.1, PBLUC_R_SQUARED 0.205, read-out: LUCIFERASE INFECTION ASSAY - IC50): > 8.6 µM |
| Cn1c(Oc2cccc3c2OC(C)(C)C3)c(C#N)c(=O)n(C)c1=O | 0.188 µM | IC50 (PBLUC_HILL_SLOPE 0.981, PBLUC_R_SQUARED 0.556, read-out: LUCIFERASE INFECTION ASSAY - IC50): 0.02 µM |
| Cc1cc(C(=O)CN(C)S(=O)(=O)c2cccs2)c(C)n1-c1ccccn1 | > 10 µM | IC50 (PBLUC_HILL_SLOPE 0.948, PBLUC_R_SQUARED 0.586, read-out: LUCIFERASE INFECTION ASSAY - IC50): 2.02 µM |
| O=C(Nc1ccc(F)cc1)Nc1cnn(-c2ccc(Cl)cc2)c1C(F)(F)F | 2.1 µM | IC50 (PBLUC_HILL_SLOPE 1.06, PBLUC_R_SQUARED 0.652, read-out: LUCIFERASE INFECTION ASSAY - IC50): 0.266 µM |
| CC(=O)N1CCN(C(=O)CCC(=O)Nc2nc3ccccc3s2)CC1 | > 10 µM | IC50 (PBLUC_HILL_SLOPE 1.05, PBLUC_R_SQUARED 0.239, read-out: LUCIFERASE INFECTION ASSAY - IC50): > 10 µM |
| CN(c1ccccc1)c1nnc(C(O)c2ccc3ccccc3c2)s1 (configuration not stated) | > 10 µM | IC50 (PBLUC_HILL_SLOPE 0.974, PBLUC_R_SQUARED 0.604, read-out: LUCIFERASE INFECTION ASSAY - IC50): 3.52 µM |
| Cc1ccc(/C=C/C(=O)NC2=NCCS2)c(Br)c1 | > 10 µM | IC50 (PBLUC_HILL_SLOPE 0.976, PBLUC_R_SQUARED 0.447, read-out: LUCIFERASE INFECTION ASSAY - IC50): 3.48 µM |
| O=C(COc1ccc2[nH]c3ccccc3c(=O)c2c1)Nc1ccccc1Cc1ccccc1 | 0.11 µM | IC50 (PBLUC_HILL_SLOPE 1.04, PBLUC_R_SQUARED 0.893, read-out: LUCIFERASE INFECTION ASSAY - IC50): 0.0133 µM |
| OC(CNC1CCN(Cc2ccccc2)CC1)COc1ccc(OC(F)(F)F)cc1 (configuration not stated) | > 7.77 µM | IC50 (PBLUC_HILL_SLOPE 0.955, PBLUC_R_SQUARED 0.217, read-out: LUCIFERASE INFECTION ASSAY - IC50): > 7.77 µM |

— ChEMBL document CHEMBL4483862, “Open-source discovery of chemical leads for next-generation chemoprotective antimalarials” (2018)
